Measurements published in patent US12581252B2, “Substituted pyrrolo[3,4-b]pyridines as PI3K-α inhibitors” (Relay Therapeutics, Inc., priority 2020, dated 2026).

Target: H1047R PIK3CA enzyme (Homo sapiens, UniProt P42336, H1047R)
Test: ADP-Glo Biochemical PIK3CA Kinase Assay

Sequence of H1047R PIK3CA enzyme (P42336 whole entry H1047R): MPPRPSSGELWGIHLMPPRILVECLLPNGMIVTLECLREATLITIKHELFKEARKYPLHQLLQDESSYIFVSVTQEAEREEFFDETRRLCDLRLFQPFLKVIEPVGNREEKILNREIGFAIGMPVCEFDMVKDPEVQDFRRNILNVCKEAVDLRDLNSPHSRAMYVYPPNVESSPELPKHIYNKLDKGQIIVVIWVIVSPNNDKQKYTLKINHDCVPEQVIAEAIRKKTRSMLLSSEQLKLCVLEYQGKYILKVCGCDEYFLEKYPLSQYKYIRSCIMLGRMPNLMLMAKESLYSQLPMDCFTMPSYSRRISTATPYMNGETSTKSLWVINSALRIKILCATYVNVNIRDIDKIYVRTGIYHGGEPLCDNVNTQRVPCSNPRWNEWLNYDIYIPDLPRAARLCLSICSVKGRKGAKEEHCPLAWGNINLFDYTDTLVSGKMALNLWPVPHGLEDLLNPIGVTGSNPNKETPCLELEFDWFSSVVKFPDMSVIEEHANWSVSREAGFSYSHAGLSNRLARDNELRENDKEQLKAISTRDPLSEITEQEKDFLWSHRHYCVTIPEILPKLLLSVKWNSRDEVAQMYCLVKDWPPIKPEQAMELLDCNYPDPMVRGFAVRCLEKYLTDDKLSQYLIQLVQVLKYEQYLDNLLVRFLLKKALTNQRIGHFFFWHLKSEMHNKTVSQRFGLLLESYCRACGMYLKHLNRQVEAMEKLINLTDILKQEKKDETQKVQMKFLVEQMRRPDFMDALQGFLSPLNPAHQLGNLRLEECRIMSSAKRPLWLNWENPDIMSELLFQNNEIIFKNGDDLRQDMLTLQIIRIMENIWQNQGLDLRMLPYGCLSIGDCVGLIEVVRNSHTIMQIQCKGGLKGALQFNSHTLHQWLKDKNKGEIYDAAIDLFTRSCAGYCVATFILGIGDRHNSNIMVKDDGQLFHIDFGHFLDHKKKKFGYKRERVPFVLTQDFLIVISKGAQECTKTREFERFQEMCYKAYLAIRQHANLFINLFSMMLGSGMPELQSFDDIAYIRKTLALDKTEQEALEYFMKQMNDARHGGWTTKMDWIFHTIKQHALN
Sequence of H1047R PIK3CA enzyme (P27986 whole entry partner): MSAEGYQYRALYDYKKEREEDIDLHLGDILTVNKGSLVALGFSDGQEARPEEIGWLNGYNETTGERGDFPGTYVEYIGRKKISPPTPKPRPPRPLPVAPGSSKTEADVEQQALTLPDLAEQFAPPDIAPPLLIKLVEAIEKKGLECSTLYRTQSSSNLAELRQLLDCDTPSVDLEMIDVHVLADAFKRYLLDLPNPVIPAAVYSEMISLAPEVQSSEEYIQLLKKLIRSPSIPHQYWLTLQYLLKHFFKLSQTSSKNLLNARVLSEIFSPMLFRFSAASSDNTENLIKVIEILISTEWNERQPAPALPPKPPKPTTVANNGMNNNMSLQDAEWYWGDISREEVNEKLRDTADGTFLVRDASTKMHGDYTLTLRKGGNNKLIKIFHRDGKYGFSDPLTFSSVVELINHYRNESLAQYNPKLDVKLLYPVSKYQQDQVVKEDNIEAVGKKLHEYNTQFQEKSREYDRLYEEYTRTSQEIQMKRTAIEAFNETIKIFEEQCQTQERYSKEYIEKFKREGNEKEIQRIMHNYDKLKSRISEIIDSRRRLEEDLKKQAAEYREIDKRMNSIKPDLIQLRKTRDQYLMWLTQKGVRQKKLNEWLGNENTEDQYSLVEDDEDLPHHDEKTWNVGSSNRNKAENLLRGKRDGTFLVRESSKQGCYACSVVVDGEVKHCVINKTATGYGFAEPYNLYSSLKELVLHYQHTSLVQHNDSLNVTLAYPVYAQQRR

Structure (SMILES) | IC50 [µM]
O=C1NC(c2cc(F)ccc2Cl)c2c(NC(=O)c3noc4c3CCCC4)cccc21 (centres unmarked) [Compound I-2238] | 1 to 10
N#CCCN(C(=O)c1cc(F)cc(C(F)(F)F)c1)c1cc(O)cc2c1C(c1cc(F)ccc1Cl)NC2=O (centres unmarked) [Compound I-2251] | 10 to 100
O=C(Nc1cccc2c1C(c1cc(F)ccc1Cl)NC2=O)c1coc2c1COC2 (centres unmarked) [Compound I-2265] | 10 to 100
O=C(Nc1cccc2c1C(c1cc(F)ccc1Cl)NC2=O)c1csc2c1CCOC2 (centres unmarked) [Compound I-2266] | 0.1 to 0.5
O=C(Nc1cc(-c2cn3ncnc3cn2)cc2c1C(c1cc(F)ccc1Cl)NC2=O)c1cc(F)cc(Cl)c1 (centres unmarked) [Compound I-2267] | 1 to 10
O=C1NC(c2cc(F)ccc2Cl)c2c(NC(=O)N3CCSc4ccccc43)cccc21 (centres unmarked) [Compound I-2284] | 10 to 100
O=C1NC(c2cc(F)ccc2Cl)c2c(NC(=O)C34CCC(C(O)C(F)(F)F)(CC3)C4)cccc21 (centres unmarked) [Compound I-2285] | 10 to 100
CC(C#N)c1cc(NC(=O)c2cc(F)cc(C(F)(F)F)c2)c2c(c1)C(=O)N[C@@H]2c1cc(F)ccc1Cl (some centres unmarked) [Compound I-2289] | 1 to 10
O=C1NC(c2cc(F)ccc2Cl)c2c(OCc3cc(F)cc(C(F)(F)F)c3)cccc21 (centres unmarked) [Compound I-2295] | 10 to 100
O=C1NC(CO)(c2cccc(F)c2)c2c1cccc2-c1nc2cc(C(F)(F)F)cc(F)c2[nH]1 (centres unmarked) [Compound I-2296] | 1 to 10
CN1CCN=C1Nc1cc(NC(=O)c2cc(F)cc(C(F)(F)F)c2)c2c(c1)C(=O)NC2c1cc(F)ccc1Cl (centres unmarked) [Compound I-2298] | 0.1 to 0.5
O=C1NC(c2cc(F)ccc2Cl)c2c(NC(=O)c3csc4cocc34)cccc21 (centres unmarked) [Compound I-2301] | 10 to 100
O=C1NC(c2cc(F)ccc2Cl)c2c(NC(=O)C3COC4CCCCC43)cccc21 (centres unmarked) [Compound I-2302] | 10 to 100
O=C1NC(c2cc(F)ccc2Cl)c2c(NC(=O)C34CC5CC(CC(C5)O3)C4)cccc21 (centres unmarked) [Compound I-2303] | 10 to 100
O=C(Nc1cccc2c1C(c1cc(F)ccc1Cl)NC2=O)c1csc2c1CCNC2 (centres unmarked) [Compound I-2304] | 10 to 100
O=C1NC(c2cc(F)ccc2Cl)c2c(NC(=O)N3CCCc4ccccc4C3)cccc21 (centres unmarked) [Compound I-2305] | 10 to 100
O=C1NC(c2cc(F)ccc2Cl)c2c(NC(=O)N3CCCCc4ccccc43)cccc21 (centres unmarked) [Compound I-2306] | 10 to 100
O=C1NC(c2cc(F)ccc2Cl)c2c(NC(=O)N3CCc4ccccc4C3)cccc21 (centres unmarked) [Compound I-2307] | 10 to 100
O=C1NC(c2cc(F)ccc2Cl)c2c(NC(=O)N3CCc4ccccc4CC3)cccc21 (centres unmarked) [Compound I-2308] | 10 to 100
NC(=O)CCN(C(=O)c1cc(F)cc(C(F)(F)F)c1)c1cc(O)cc2c1C(c1cc(F)ccc1Cl)NC2=O (centres unmarked) [Compound I-2309] | 10 to 100
O=C1NC(c2cc(F)ccc2Cl)c2c(NC(=O)n3nc(O)c4ccccc43)cccc21 (centres unmarked) [Compound I-2315] | 1 to 10
O=C(Nc1ccc(C(F)(F)F)cc1)c1cccc2c1C(c1cc(F)ccc1Cl)NC2=O (centres unmarked) [Compound I-2316] | 10 to 100
COC(=O)C1CN(C(=O)Nc2cccc3c2C(c2cc(F)ccc2Cl)NC3=O)c2ccccc21 (centres unmarked) [Compound I-2317] | 10 to 100
Nc1cc(NC(=O)c2cc(F)cc(C(F)(F)F)c2)c2c(c1)C(=O)NC2c1cccc(F)c1 (centres unmarked) [Compound I-2320] | 0.5 to 1
O=C1NC(c2cc(F)ccc2Cl)c2c(NC(=O)N3CCC3c3ccccc3)cccc21 (centres unmarked) [Compound I-2321] | 10 to 100

Structure (SMILES) | IC50 [µM]
O=C(Nc1cccc2c1C(CC1CC=CC1)NC2=O)c1cc(F)cc(C(F)(F)F)c1 (centres unmarked) [Compound I-2322] | 10 to 100
O=C(Nc1cc(NC2=NCC3(CC3)O2)cc2c1C(c1cc(F)ccc1Cl)NC2=O)c1cc(F)cc(C(F)(F)F)c1 (centres unmarked) [Compound I-2327] | 0.1 to 0.5
O=C(Nc1cccc2c1C(c1nc(C(F)(F)F)cs1)NC2=O)c1cc(F)cc(C(F)(F)F)c1 (centres unmarked) [Compound I-2330] | 10 to 100
O=C1NC(c2cc(F)ccc2Cl)c2c(NC(=O)N3CC(C(F)(F)F)Nc4ccccc43)cccc21 (centres unmarked) [Compound I-2339] | 10 to 100
O=C1NC(c2cc(F)ccc2Cl)c2c(NC(=O)N3CCSC(C(F)(F)F)C3)cccc21 (centres unmarked) [Compound I-2340] | 10 to 100
O=C(Nc1cc(/N=C2\OC[C@H]3CCCN23)cc2c1C(c1cc(F)ccc1Cl)NC2=O)c1cc(F)cc(C(F)(F)F)c1 (some centres unmarked) [Compound I-2354] | 0.1 to 0.5
O=C(Nc1cc(/N=C2\OC[C@@H]3CCCN23)cc2c1C(c1cc(F)ccc1Cl)NC2=O)c1cc(F)cc(C(F)(F)F)c1 (some centres unmarked) [Compound I-2355] | 0.1 to 0.5
CC1(C)COC(Nc2cc(NC(=O)c3cc(F)cc(C(F)(F)F)c3)c3c(c2)C(=O)NC3c2cc(F)ccc2Cl)=N1 (centres unmarked) [Compound I-2358] | 0.1 to 0.5
O=C(Nc1cccc2c1C(c1cc(F)ccc1Cl)NC2=O)c1cscc1C(F)(F)F (centres unmarked) [Compound I-2361] | 1 to 10
O=C(CCc1ccccc1)Nc1cccc2c1C(c1cc(F)ccc1Cl)NC2=O (centres unmarked) [Compound I-2362] | 10 to 100
O=C(Nc1cccc2c1C(c1cc(F)ccc1Cl)NC2=O)c1ccc(O)c(C(F)(F)F)c1 (centres unmarked) [Compound I-2363] | 10 to 100
O=C(/C=C/c1ccccc1)Nc1cccc2c1C(c1cc(F)ccc1Cl)NC2=O (centres unmarked) [Compound I-2372] | 10 to 100
O=C1NC(c2cc(F)ccc2Cl)c2c(NC(=O)n3ncc4ccccc43)cccc21 (centres unmarked) [Compound I-2373] | 0.1 to 0.5
O=C1NC(c2cc(F)ccc2Cl)c2c(NC(=O)C3CCc4ccccc4CC3)cccc21 (centres unmarked) [Compound I-2374] | 10 to 100
O=C1NC(c2cc(F)ccc2Cl)c2c(NC(=O)N3CCCC34CCC4)cc(Br)cc21 (centres unmarked) [Compound I-2377] | 0.5 to 1
Cc1nn(C(=O)Nc2cccc3c2C(c2cc(F)ccc2Cl)NC3=O)c2ccccc12 (centres unmarked) [Compound I-2380] | 0.5 to 1
Nc1nn(C(=O)Nc2cccc3c2C(c2cc(F)ccc2Cl)NC3=O)c2ccccc12 (centres unmarked) [Compound I-2381] | 0.1 to 0.5
O=C(Nc1cccc2c1C(c1cc(F)ccc1Cl)NC2=O)Nc1n[nH]c2ccccc12 (centres unmarked) [Compound I-2382] | 1 to 10
CCCCc1ccc(Cl)c(C2NC(=O)c3cccc(NC(=O)c4cc(O)cc(C(F)(F)F)c4)c32)c1 (centres unmarked) [Compound I-2391] | 1 to 10
O=C1NC(c2cc(F)ccc2Cl)c2c(NC(=O)c3ncsc3Br)cccc21 (centres unmarked) [Compound I-2397] | 1 to 10
O=C1NC(c2cc(F)ccc2Cl)c2c(NC(=O)N3CCC(C4CC4)C3)cccc21 (centres unmarked) [Compound I-2398] | 10 to 100
N#Cc1cnn(-c2cc(NC(=O)N3C[C@H](O)c4cc(F)ccc43)c3c(c2)C(=O)N[C@H]3c2cc(F)ccc2Cl)c1 [Compound I-2403] | ≤ 0.1
N#Cc1cnn(-c2cc(NC(=O)N3CC(O)c4cc(F)ccc43)c3c(c2)C(=O)NC3c2cc(F)ccc2Cl)c1 (centres unmarked) [Compound I-2404] | 0.1 to 0.5
O=C1NC(c2cc(F)ccc2Cl)c2c(NC(=O)N3CCCC3C3CC3)cccc21 (centres unmarked) [Compound I-2408] | 10 to 100
O=C1NC(c2cc(F)ccc2Cl)c2c(NC(=O)N3CC(O)(c4scnc4C(F)(F)F)C3)cccc21 (centres unmarked) [Compound I-2417] | 10 to 100

Structure (SMILES) | IC50 [µM]
CCC1CCN(C(=O)Nc2cccc3c2C(c2cc(F)ccc2Cl)NC3=O)C1 (centres unmarked) [Compound I-2420] | 10 to 100
O=C1N[C@@H](c2cc(F)ccc2Cl)c2c(NC(=O)N3CC[C@H]4CCCC[C@H]43)cccc21 [Compound I-2422] | 1 to 10
O=C1NC(c2cc(F)ccc2Cl)c2c(NC(=O)N3CCCC34CCCC4)cc(Br)cc21 (centres unmarked) [Compound I-2424] | 0.5 to 1
N#Cc1cccc2c1CCN2C(=O)Nc1cccc2c1C(c1cc(F)ccc1Cl)NC2=O (centres unmarked) [Compound I-2425] | 10 to 100
N#Cc1ccc2c(c1)CCN2C(=O)Nc1cccc2c1C(c1cc(F)ccc1Cl)NC2=O (centres unmarked) [Compound I-2426] | 10 to 100
N#Cc1ccc2c(c1)N(C(=O)Nc1cccc3c1C(c1cc(F)ccc1Cl)NC3=O)CC2 (centres unmarked) [Compound I-2427] | 1 to 10
O=C1NC(c2cc(F)ccc2Cl)c2c(NC(=O)N3CCSC3)cccc21 (centres unmarked) [Compound I-2428] | 10 to 100
O=C1NC(c2cc(F)ccc2Cl)c2c(NC(=O)N3CC4C5CCC(C5)C43)cccc21 (centres unmarked) [Compound I-2429] | 10 to 100
O=C1NC(c2cc(F)ccc2Cl)c2c(NC(=O)N3CCCC34CCCCC4)cccc21 (centres unmarked) [Compound I-2430] | 0.5 to 1
Nc1nn(C(=O)Nc2cccc3c2C(c2cc(F)ccc2Cl)NC3=O)c2ccc(F)cc12 (centres unmarked) [Compound I-2431] | 0.5 to 1
CCN(C(=O)Nc1cccc2c1C(c1cc(F)ccc1Cl)NC2=O)c1ccc(F)cc1 (centres unmarked) [Compound I-2434] | 10 to 100
CN(C(=O)Nc1cccc2c1C(c1cc(F)ccc1Cl)NC2=O)c1ccc(F)cc1 (centres unmarked) [Compound I-2435] | 10 to 100
O=C1NC(c2cc(F)ccc2Cl)c2c(NC(=O)N3CCc4cc(C(F)(F)F)ccc43)cccc21 (centres unmarked) [Compound I-2436] | 10 to 100
COc1ccc2c(c1)CCN2C(=O)Nc1cccc2c1C(c1cc(F)ccc1Cl)NC2=O (centres unmarked) [Compound I-2437] | 10 to 100
Cc1cccc2c1CCN2C(=O)Nc1cccc2c1C(c1cc(F)ccc1Cl)NC2=O (centres unmarked) [Compound I-2438] | 1 to 10
COc1ccc2c(c1)N(C(=O)Nc1cccc3c1C(c1cc(F)ccc1Cl)NC3=O)CC2 (centres unmarked) [Compound I-2439] | 1 to 10
Cc1ccc2c(c1)CCN2C(=O)Nc1cccc2c1C(c1cc(F)ccc1Cl)NC2=O (centres unmarked) [Compound I-2440] | 10 to 100
O=C1NC(c2cc(F)ccc2Cl)c2c(NC(=O)N3CCc4c(Cl)cccc43)cccc21 (centres unmarked) [Compound I-2442] | 1 to 10
O=C1NC(c2cc(F)ccc2Cl)c2c(NC(=O)N3CCc4ccc(C(F)(F)F)cc43)cccc21 (centres unmarked) [Compound I-2447] | 1 to 10
CC(C)c1cc(N)n(C(=O)Nc2cccc3c2C(c2cc(F)ccc2Cl)NC3=O)n1 (centres unmarked) [Compound I-2465] | 10 to 100
CC(C)c1cc(N)nn1C(=O)Nc1cccc2c1C(c1cc(F)ccc1Cl)NC2=O (centres unmarked) [Compound I-2466] | 10 to 100
O=C1NC(c2cc(F)ccc2Cl)c2c(NC(=O)N3CCCC34CC4)cccc21 (centres unmarked) [Compound I-2467] | 1 to 10
O=C1NC(c2cc(F)ccc2Cl)c2c(NC(=O)N3CCC4(CC4)C3)cccc21 (centres unmarked) [Compound I-2468] | 10 to 100
Cc1ccc2c(c1)N(C(=O)Nc1cccc3c1C(c1cc(F)ccc1Cl)NC3=O)CC2 (centres unmarked) [Compound I-2470] | 0.1 to 0.5
